Measured values reported in article PMC8286840, “Identifying SARS-CoV-2 antiviral compounds by screening for small molecule inhibitors of Nsp3 papain-like protease” (Biochemical Journal, 2021).
Structures can show the parent of a compound that is named as a salt. Where two headings read alike, the source gives them in different places. Where a SMILES comes first, the peptide text is derived from it. [ ]: non-standard residue; d: D form. pGlu = O=C1CC[C@@H](C(=O)O)N1; Thz = O=C(O)[C@@H]1CSCN1

Tests used:
[1] = biological target: T1, SARS-CoV-2 PLpro (nsp3 1564–1878) (Severe acute respiratory syndrome coronavirus 2, UniProt P0DTD1); assay: biochemical; design: FRET-quenched peptide (Pro3) cleavage by PLpro, 10 min pre-incubation, slope over 20 min, normalised to no-compound control; details: high concentration screen, read-out: % of control remaining
[2] = biological target: T1, SARS-CoV-2 PLpro (nsp3 1564–1878); assay: biochemical; design: FRET-quenched peptide (Pro3) cleavage by PLpro, 10 min pre-incubation, slope over 20 min, normalised to no-compound control; details: low concentration screen, read-out: % of control remaining

Compound: CCc1nn(CCCN2CCN(c3cccc(Cl)c3)CC2)c(=O)n1CCOc1ccccc1 [2-{3-[4-(3-chlorophenyl)-1-piperazinyl]propyl}-5-ethyl-4-(2-phenoxyethyl)-2,4-dihydro-3H-1,2,4-triazol-3-one hydrochloride]
- remaining activity at 3.75 µM ([1]; Well no.=5691): 96.7%
- remaining activity at 1.25 µM ([2]; Well no.=5691): 99.4%

Compound: CN1CCN(CCCN2c3ccccc3Sc3ccc(C(F)(F)F)cc32)CC1 [Trifluoperazine (dihydrochloride)]
- remaining activity at 3.75 µM ([1]; Well no.=6369): 105%
- remaining activity at 1.25 µM ([2]; Well no.=6369): 105%

Compound: NC(=O)N1c2ccccc2C=Cc2ccccc21 [Carbamazepine]
- remaining activity at 3.75 µM ([1]; Well no.=270): 94.9%
- remaining activity at 3.75 µM ([1]; Well no.=2215): 95.8%
- remaining activity at 1.25 µM ([2]; Well no.=270): 96.8%
- remaining activity at 1.25 µM ([2]; Well no.=2215): 97.8%

Compound: O=C(O)CCC/C=C\C[C@@H]1[C@@H](/C=C/[C@H](O)C2Cc3ccccc3C2)[C@@H](F)C[C@@H]1O [AL-8810]
- remaining activity at 3.75 µM ([1]; Well no.=205): 104%
- remaining activity at 1.25 µM ([2]; Well no.=205): 100%

Compound: CN1CCc2c(cc(O)c(O)c2Cl)C(c2cccc(Cl)c2)C1 (centres unmarked) [SKF 83565 hydrobromide]
- remaining activity at 3.75 µM ([1]; Well no.=1504): 97.3%
- remaining activity at 1.25 µM ([2]; Well no.=1504): 94.9%

Compound: COC(=O)C1=C(C)NC(C)=C(C(=O)OCCN(C)Cc2ccccc2)C1c1cccc([N+](=O)[O-])c1 (centres unmarked) [Nicardipine.HCl]
- remaining activity at 3.75 µM ([1]; Well no.=1593): 104%
- remaining activity at 1.25 µM ([2]; Well no.=1593): 104%

Compound: COC1=C(OC)C(=O)c2ccccc2C1=O [2,3-Dimethoxy-1,4-naphthoquinone]
- remaining activity at 3.75 µM ([1]; Well no.=739): 96.9%
- remaining activity at 1.25 µM ([2]; Well no.=739): 98%

Compound: CC[N+](CC)(CC)CC [Tetraethylammonium chloride]
- remaining activity at 3.75 µM ([1]; Well no.=1475): 89%
- remaining activity at 1.25 µM ([2]; Well no.=1475): 93.2%

Compound: O=C1CC[C@@H](C(=O)N2CSC[C@H]2C(=O)O)N1 [Pidotimod] ([pGlu]-[Thz]-OH)
- remaining activity at 3.75 µM ([1]; Well no.=4933): 105%
- remaining activity at 3.75 µM ([1]; Well no.=7508): 97.7%
- remaining activity at 1.25 µM ([2]; Well no.=7508): 101%

Compound: COc1ccc2[nH]c([S@@+]([O-])Cc3ncc(C)c(OC)c3C)nc2c1 [Esomeprazole]
- remaining activity at 3.75 µM ([1]; Well no.=2032): 106%
- remaining activity at 1.25 µM ([2]; Well no.=2032): 108%

Compound: CC1CN(S(=O)(=O)c2cccc3cnccc23)CCN1 (centres unmarked) [1-(5-Isoquinolinylsulfonyl)-3-methylpiperazine dihydrochloride]
- remaining activity at 3.75 µM ([1]; Well no.=869): 104%
- remaining activity at 1.25 µM ([2]; Well no.=869): 106%

Compound: COc1cc(C(O)CN)ccc1O (racemic)
- remaining activity at 3.75 µM ([1]; Well no.=1049): 96.1%
- remaining activity at 1.25 µM ([2]; Well no.=1049): 96.5%

Compound: O=c1ccn([C@@H]2O[C@@]3(CO)CO[C@@H]2[C@@H]3O)c(=O)[nH]1
- remaining activity at 3.75 µM ([1]; Well no.=7864): 92.8%
- remaining activity at 1.25 µM ([2]; Well no.=7864): 98.5%

Compound: Cc1cccc(-c2[nH]c(C(C)(C)C)nc2-c2ccc3c(c2)OCO3)n1 [SB-505124]
- remaining activity at 3.75 µM ([1]; Well no.=4814): 95.6%
- remaining activity at 1.25 µM ([2]; Well no.=4814): 101%

Compound: COC(=O)c1ccc2c(C(=Nc3ccc(N(C)C(=O)CN4CCN(C)CC4)cc3)c3ccccc3)c(O)[nH]c2c1 [Vargatef]
- remaining activity at 3.75 µM ([1]; Well no.=2847): 104%
- remaining activity at 1.25 µM ([2]; Well no.=2847): 103%

Compound: COC(=O)[C@H](CCSC)NC(=O)c1ccc(NC[C@@H](N)CS)cc1-c1ccccc1 [FTI-277 (hydrochloride)]
- remaining activity at 3.75 µM ([1]; Well no.=8508): 102%
- remaining activity at 1.25 µM ([2]; Well no.=8508): 101%

Compound: CCC(=O)c1cc(-c2ccc(Cl)cc2)n(-c2ccc(S(N)(=O)=O)cc2)c1C [A-867744]
- remaining activity at 3.75 µM ([1]; Well no.=8320): 94%
- remaining activity at 1.25 µM ([2]; Well no.=8320): 96.8%

Compound: Cn1c(=O)c2[nH]c(-c3ccccc3)nc2n(C)c1=O [1,3-Dimethyl-8-phenylxanthine]
- remaining activity at 3.75 µM ([1]; Well no.=952): 99.2%
- remaining activity at 1.25 µM ([2]; Well no.=952): 103%

Compound: O=C1c2c(O)cc(O)cc2O[C@H](c2cc(O)c(O)c(O)c2)[C@H]1O [(2R,3R)-3,5,7-trihydroxy-2-(3,4,5-trihydroxyphenyl)-2,3-dihydro-4H-chromen-4-one]
- remaining activity at 3.75 µM ([1]; Well no.=5388): 111%
- remaining activity at 1.25 µM ([2]; Well no.=5388): 106%

Compound: C[C@@H]1O[C@@H]1P(=O)(O)O [Phosphomycin disodium]
- remaining activity at 3.75 µM ([1]; Well no.=1148): 93.1%
- remaining activity at 1.25 µM ([2]; Well no.=1148): 96.5%

Compound: N/C(=N\C(=O)c1nc(Cl)c(N)nc1N)NCc1ccc(Cl)c(Cl)c1 [3',4'-Dichlorobenzamil]
- remaining activity at 3.75 µM ([1]; Well no.=440): 88.3%
- remaining activity at 1.25 µM ([2]; Well no.=440): 99.5%

Compound: O=C(O)C1=CO[C@@H](O[C@@H]2O[C@H](CO)[C@@H](O)[C@H](O)[C@H]2O)[C@@H]2C(CO)=CC[C@H]12 [Geniposidic acid]
- remaining activity at 3.75 µM ([1]; Well no.=5236): 95.9%
- remaining activity at 1.25 µM ([2]; Well no.=5236): 95.4%

Compound: CNC[C@H](O)c1ccc(O)c(O)c1 [Epinephrine bitartrate (Adrenalinium)]
- remaining activity at 3.75 µM ([1]; Well no.=5254): 101%
- remaining activity at 1.25 µM ([2]; Well no.=5254): 105%

Compound: CC[C@@H]1C(=O)OC[C@@H]1Cc1cncn1C [Pilocarpine nitrate]
- remaining activity at 3.75 µM ([1]; Well no.=1150): 97%
- remaining activity at 1.25 µM ([2]; Well no.=1150): 96.8%

Compound: O=C(NC1CCOCC1)c1ccc(-c2cc(-c3c[nH]nc3-c3ccccn3)ccn2)cc1 [GW788388]
- remaining activity at 3.75 µM ([1]; Well no.=5067): 106%
- remaining activity at 1.25 µM ([2]; Well no.=5067): 102%

Compound: COc1ccc(Cl)cc1NC(=O)Nc1cc(C)nc2ccccc12 [N-(5-Chloro-2-methoxyphenyl)-N'-(2-methyl-4-quinolinyl)urea]
- remaining activity at 3.75 µM ([1]; Well no.=2626): 101%
- remaining activity at 1.25 µM ([2]; Well no.=2626): 100%

Compound: O=c1cc(-c2ccccc2)oc2cc(O)c(O)c(O)c12 [Baicalein]
- remaining activity at 3.75 µM ([1]; Well no.=3087): 101%
- remaining activity at 3.75 µM ([1]; Well no.=3942): 104%
- remaining activity at 1.25 µM ([2]; Well no.=3087): 103%
- remaining activity at 1.25 µM ([2]; Well no.=3942): 108%

Compound: CCC[C@H](N[C@@H](C)C(=O)N1[C@H](C(=O)O)C[C@@H]2CCCC[C@@H]21)C(=O)OCC [Perindopril (erbumine)]
- remaining activity at 3.75 µM ([1]; Well no.=8070): 102%
- remaining activity at 1.25 µM ([2]; Well no.=8070): 106%

Compound: COc1ccc(COc2cc3oc(=O)c4cc(C(C)O)ccc4c3cc2OC)cc1 (centres unmarked) [Palomid 529]
- remaining activity at 3.75 µM ([1]; Well no.=4860): 98.2%
- remaining activity at 1.25 µM ([2]; Well no.=4860): 102%

Compound: C[C@]12CC[C@@H](O)C[C@@H]1CC[C@@H]1[C@@H]2CC[C@]2(C)[C@@H](C(=O)CO)CC[C@@H]12 [3-alpha,21-Dihydroxy-5-alpha-pregnan-20-one]
- remaining activity at 3.75 µM ([1]; Well no.=856): 104%
- remaining activity at 1.25 µM ([2]; Well no.=856): 99.8%

Compound: C[S+]([O-])c1ccc(-c2nc(-c3ccc(F)cc3)c(-c3ccncc3)[nH]2)cc1 (centres unmarked) [SB 203580]
- remaining activity at 3.75 µM ([1]; Well no.=2644): 91.7%
- remaining activity at 1.25 µM ([2]; Well no.=2644): 91.3%

Compound: CCCCCC[C@@H](O)C/C=C\CCCCCCCC(=O)O [Ricinoleic acid]
- remaining activity at 3.75 µM ([1]; Well no.=4484): 99.9%
- remaining activity at 1.25 µM ([2]; Well no.=4484): 102%

Compound: Cc1ccc(S(=O)(=O)N2CCC[C@H]2c2ccc(F)cc2)cc1 [Ro 67-7476]
- remaining activity at 3.75 µM ([1]; Well no.=8053): 102%
- remaining activity at 1.25 µM ([2]; Well no.=8053): 99.6%
